Data taken from ChEMBL document CHEMBL1150083, “The Racemization of Crinitol. Resolution of Crinitol and of 3-Nonen-2-ol Enantiomers by Recycle-HPLC, via MTPA Esters” (J Nat Prod, 1995).
Active and inactive are the calls of the source.

Experiments:
Format in all cases: functional, organism-based
[1] = system: Corynebacterium ammoniagenes; assay: Antimicrobial activity against Brevibacterium ammoniagenes
Cutibacterium acnes = assay: Antimicrobial activity against Propionibacterium acnes
Streptococcus mutans = assay: Antimicrobial activity against Streptococcus mutans
Staphylococcus aureus = assay: Antimicrobial activity against Staphylococcus aureus
Bacillus subtilis = assay: Antimicrobial activity against Bacillus subtilis

Measured: Activity

CC(C)=CCC/C(C)=C/[C@H](O)C/C(C)=C/CC/C(C)=C/CO
active: all assays above

CC(C)=CCC/C(C)=C/[C@@H](O)C/C(C)=C/CC/C(C)=C/CO
active: all assays above
